Values joined by “and” are separate entries in the source; they are usually repeats but may differ in a detail not shown here. Equal values may be shown once. Marks after values point to notes of the source that are not given here.
How the values were obtained:
[1] = system: P388 lymphocytic leukemia; assay: Murine P388 lymphocytic leukemia model (intraperitoneal transplantation), life span; format: in vivo, mouse; conditions: for Average life span X ± SD: observed within 30 days; for Life span ratio %: vs solvent control
Procedure: Both male and female mice were used.
Preparation and Administration of Test Compounds.
To prepare cancer cells for the P388 murine lymphocytic leukemia model, ascites of a P388 leukemia-bearing mouse were removed under sterile condition. The ascites were diluted in normal saline (1:6 for ascites to normal saline) to prepare cell suspension. 0.2 mL of the cell suspension was then injected intraperitoneally. […] The life span of carrier mice was determined within 30 days. The life span ratio comparing to the negative control group of the carrier mice in each compound treatment group was calculated according to the formula: Life span ratio %=average life span for the compound treatment group/average life span for the negative control group×100% (4)

[2] = system: Bcap-37 human breast cancer; assay: Bcap-37 human breast cancer xenograft in nude mice, dosing from 24 h after transplantation (Example 3); format: in vivo; conditions: for tumor inhibition rate %: vs solvent control
Excerpt: Both male and female mice were used. […] Test control. […] Preparation and Administration of Test Compounds. […] For human tumor xenograft model, all used materials, including animal food, animal cage, supporting materials and apparatus contacted by animals, were high-pressure sterilized. Nude mice were maintained in laminar flow shelves under SPF condition. After tumor transplantation, mouse weight and tumor size in each compound dosage group were dynamically monitored and plotted.

[3] = system: ao10/17 human ovarian cancer; assay: ao10/17 human ovarian cancer xenograft in nude mice (Example 4); format: in vivo; conditions: 8 mg/kg iv x7 qd
Procedure: Only female mice were used in this study. […] The high, middle and low doses of ACEA100108 were 50, […] and 8 mg/kg/d, respectively.
Preparation and Administration of Test Compounds. […] The high, middle and low dose of compound ACEA100108 was 50, 20 and 8 mg/kg, respectively.
The tumor tissues were grounded in normal saline (1:6 for tumor volume to saline volume) and tumor cell suspensions were prepared in the normal saline.
For the human ovarian cancer xenograft model, all used materials, including animal food, animal cage, supporting materials and apparatus contacted by animals, were high-pressure sterilized. Nude mice were maintained in laminar flow shelves under SPF condition. After tumor transplantation, mouse weight and tumor size in each compound dosage group were dynamically monitored and plotted. The tumor size was determined by measuring the major axis (a) and minor axis (b) of the tumor, and tumor volume was calculated according to the equation (3) in Example 3.

[4] = 8 mg/kg iv x7 qd, 7 days after transplantation
[5] = 20 mg/kg iv x7 qd, 7 days after transplantation
[6] = 50 mg/kg iv x7 qd, 7 days after transplantation

Fc1ccc(CSSSCc2ccc(F)cc2)cc1 [ACEA100108, Di(p-fluorobenzyl)trisulfide]
animal No. beginning/end (survivors) ([1]; 12.5 mg/kg/d iv x7 qd): 10/0 | Average life span X ± SD ([1]; 12.5 mg/kg/d iv x7 qd): 10.6 ± 0.84 | Life span ratio % ([1]; 12.5 mg/kg/d iv x7 qd): 109.28% | animal No. beginning/end (survivors) ([1]; 25 mg/kg/d iv x7 qd): 10/0 | Average life span X ± SD ([1]; 25 mg/kg/d iv x7 qd): 10.4 ± 1.17 | Life span ratio % ([1]; 25 mg/kg/d iv x7 qd): 107.22% | animal No. beginning/end (survivors) ([1]; 50 mg/kg/d iv x7 qd): 10/0 | Average life span X ± SD ([1]; 50 mg/kg/d iv x7 qd): 10.3 ± 0.95 | Life span ratio % ([1]; 50 mg/kg/d iv x7 qd): 106.18% | Anticancer effect on P388 mouse leukemia model ([1]; 50, 25, 12.5 mg/kg iv x7 qd): did not exhibit anticancer effect | Mice with palpable tumor / total mice [2, 4]: 4/6†† | Tumor volume (cm^3) [2, 4]: 0.01 cm^3 | Tumor volume (cm^3) ([2]; 8 mg/kg iv x7 qd, 14 d): 0.068 ± 0.02 cm^3 | Tumor volume (cm^3) ([2]; 8 mg/kg iv x7 qd, 21 d): 0.214 ± 0.04 cm^3 | Tumor volume (cm^3) ([2]; 8 mg/kg iv x7 qd, 24 d (end)): 0.985 cm^3 and 0.985 ± 0.4 cm^3 | TV inhibition rate % T/C ([2]; 8 mg/kg/d iv x7 qd): 56.15% | Tumor weight ([2]; 8 mg/kg/d iv x7 qd): 1.18 ± 0.23 g | Body weight of mice ([2]; 8 mg/kg/d iv x7 qd, 0 day (beginning)): 18.0 g and 18 ± 0.6 g | Body weight of mice ([2]; 8 mg/kg/d iv x7 qd, 7 day): 19.5 ± 1 g | Body weight of mice ([2]; 8 mg/kg/d iv x7 qd, 14 d): 21.5 ± 1 g | Body weight of mice ([2]; 8 mg/kg/d iv x7 qd, 21 d): 22.3 ± 1.6 g | Body weight of mice ([2]; 8 mg/kg/d iv x7 qd, 24 d (end)): 23.0 g and 23 ± 1.5 g | tumor inhibition rate % ([2]; 8 mg/kg/d iv x7 qd): 31.40% | Mice with palpable tumor / total mice [2, 5]: 5/6†† | Tumor volume (cm^3) [2, 5]: 0.01 cm^3 | Tumor volume (cm^3) ([2]; 20 mg/kg iv x7 qd, 14 d): 0.049 ± 0.03 cm^3 | Tumor volume (cm^3) ([2]; 20 mg/kg iv x7 qd, 21 d): 0.167 ± 0.03 cm^3 | Tumor volume (cm^3) ([2]; 20 mg/kg iv x7 qd, 24 d (end)): 0.488 cm^3 and 0.488 ± 0.07 cm^3 | TV inhibition rate % T/C ([2]; 20 mg/kg/d iv x7 qd): 27.82% | Tumor weight ([2]; 20 mg/kg/d iv x7 qd): 0.755 ± 0.09 g | Body weight of mice ([2]; 20 mg/kg/d iv x7 qd, 0 day (beginning)): 17.6 g and 17.6 ± 0.8 g | Body weight of mice ([2]; 20 mg/kg/d iv x7 qd, 7 day): 19.7 ± 1 g | Body weight of mice ([2]; 20 mg/kg/d iv x7 qd, 14 d): 20.8 ± 1 g | Body weight of mice ([2]; 20 mg/kg/d iv x7 qd, 21 d): 22.7 ± 1.2 g | Body weight of mice ([2]; 20 mg/kg/d iv x7 qd, 24 d (end)): 23.0 g and 23 ± 1.2 g | tumor inhibition rate % ([2]; 20 mg/kg/d iv x7 qd): 56.10% | Mice with palpable tumor / total mice [2, 6]: 3/6†† | Tumor volume (cm^3) [2, 6]: 0.01 cm^3 | Tumor volume (cm^3) ([2]; 50 mg/kg iv x7 qd, 14 d): 0.023 ± 0.02 cm^3 | Tumor volume (cm^3) ([2]; 50 mg/kg iv x7 qd, 21 d): 0.112 ± 0.03 cm^3 | Tumor volume (cm^3) ([2]; 50 mg/kg iv x7 qd, 24 d (end)): 0.310 cm^3 and 0.31 ± 0.05 cm^3 | TV inhibition rate % T/C ([2]; 50 mg/kg/d iv x7 qd): 17.67% | Tumor weight ([2]; 50 mg/kg/d iv x7 qd): 0.617 ± 0.09 g | Body weight of mice ([2]; 50 mg/kg/d iv x7 qd, 0 day (beginning)): 18.1 g and 18.1 ± 1.1 g | Body weight of mice ([2]; 50 mg/kg/d iv x7 qd, 7 day): 18.8 ± 0.8 g | Body weight of mice ([2]; 50 mg/kg/d iv x7 qd, 14 d): 20.5 ± 1 g | Body weight of mice ([2]; 50 mg/kg/d iv x7 qd, 21 d): 22.2 ± 1.2 g | Body weight of mice ([2]; 50 mg/kg/d iv x7 qd, 24 d (end)): 23.0 g and 23 ± 1.2 g | tumor inhibition rate % ([2]; 50 mg/kg/d iv x7 qd): 64.13% | Body weight of mice ([3]; 0 d (beginning)): 17.7 g and 17.7 ± 0.5 g | Mice with palpable tumor / total mice ([3]; 7 D after transplantation): 3/6
